From patent publication US11053204B2, “Pyrimidinyloxy benzene derivatives as herbicides” (FMC Corporation, priority 2015, dated 2021)

Key:
Type in all cases: in vivo
[1] = test system: Italian ryegrass (Lolium multiflorum); experiment: Test A postemergence, visual injury rating; conditions: 0 is no effect, 100 is complete control
How it was run: (§1)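 Compounds in non-phytotoxic solvent with surfactant applied as soil spray preemergence, or postemergence to plants 2-10 cm at one- to two-leaf stage, in loam/sand. After approximately 10 days in greenhouse, injury rated visually versus untreated controls, 0 (no effect) to 100 (complete control).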

[2] = test system: barnyardgrass (Echinochloa crus-galli); experiment: Test A postemergence, visual injury rating; conditions: Echinochloa crus-galli, post-emergence, 240 h, 0 is no effect, 100 is complete control, read-out: Barnyardgrass plant response rating (0 to 100 scale)
How it was run: as §1

[3] = test system: blackgrass (Alopecurus myosuroides); experiment: Test A postemergence, visual injury rating; conditions: Alopecurus myosuroides, post-emergence, 240 h, 0 is no effect, 100 is complete control, read-out: Blackgrass plant response rating (0 to 100 scale)
How it was run: as §1

corn (Zea mays) = experiment: Test A postemergence, visual injury rating; conditions: Zea mays, post-emergence, 240 h, 0 is no effect, 100 is complete control, read-out: Corn plant response rating (0 to 100 scale)
How it was run: as §1

[4] = test system: galium (catchweed bedstraw, Galium aparine); experiment: Test A postemergence, visual injury rating; conditions: Galium, post-emergence, 240 h, 0 is no effect, 100 is complete control, read-out: Galium plant response rating (0 to 100 scale)
How it was run: as §1

[5] = test system: giant foxtail (Setaria faberii); experiment: Test A postemergence, visual injury rating; conditions: Setaria faberi, post-emergence, 240 h, 0 is no effect, 100 is complete control, read-out: Foxtail, Giant plant response rating (0 to 100 scale)
How it was run: as §1

kochia (Kochia scoparia) = experiment: Test A postemergence, visual injury rating; conditions: 0 is no effect, 100 is complete control
How it was run: as §1

[6] = test system: pigweed (Amaranthus retroflexus); experiment: Test A postemergence, visual injury rating; conditions: 0 is no effect, 100 is complete control
How it was run: as §1

[7] = test system: ragweed (common ragweed, Ambrosia elatior); experiment: Test A postemergence, visual injury rating; conditions: 0 is no effect, 100 is complete control
How it was run: as §1

[8] = test system: wheat (Triticum aestivum); experiment: Test A postemergence, visual injury rating; conditions: 0 is no effect, 100 is complete control
How it was run: as §1

[9] = test system: blackgrass (Alopecurus myosuroides); experiment: Test C postemergence, plant response rating; conditions: Alopecurus myosuroides, post-emergence
How it was run: (§2)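 Pre-emergence: seeds sown in loam soil–sand blend or silt loam and sprayed with test chemicals in a non-phytotoxic solvent mixture with surfactant. Post-emergence: plants 2 to 18 cm (1- to 4-leaf stage) in peat-based potting medium, same formulation. Greenhouse 13 to 15 d; visual rating 0 (no effect) to 100 (complete control) versus controls.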

[10] = test system: chickweed (common chickweed, Stellaria media); experiment: Test C postemergence, plant response rating; conditions: Stellaria media, post-emergence
How it was run: as §2

[11] = test system: foxtail, giant (giant foxtail, Setaria faberii); experiment: Test C postemergence, plant response rating; conditions: Setaria faberi, post-emergence
How it was run: as §2

[12] = test system: galium (catchweed bedstraw, Galium aparine); experiment: Test C postemergence, plant response rating; conditions: Galium, post-emergence
How it was run: as §2

[13] = test system: oilseed rape (Brassica napus); experiment: Test C postemergence, plant response rating; conditions: Brassica napus, post-emergence
How it was run: as §2

[14] = test system: ryegrass, Italian (Italian ryegrass, Lolium multiflorum); experiment: Test C postemergence, plant response rating; conditions: Lolium multiflorum, post-emergence
How it was run: as §2

soybean (Glycine max) = experiment: Test C postemergence, plant response rating; conditions: Glycine max, post-emergence
How it was run: as §2

[15] = test system: waterhemp (common waterhemp, Amaranthus rudis); experiment: Test C postemergence, plant response rating; conditions: for Plant response rating, Waterhemp: scale 0 to 100; for Waterhemp plant response rating: scale 0 to 100 (0 no effect, 100 complete control)
How it was run: as §2

[16] = test system: wheat (winter wheat, Triticum aestivum); experiment: Test C postemergence, plant response rating; conditions: Triticum aestivum, post-emergence
How it was run: as §2

[17] = 125 g ai/ha, 0 to 100 scale, approximately 10 days
[18] = 62 g ai/ha, scale 0 to 100 (0 no effect, 100 complete control)
[19] = 125 g ai/ha, scale 0 to 100 (0 no effect, 100 complete control)

## N#Cc1cccc(Oc2ncc(Cl)cn2)c1CCCCC(F)(F)F [Compound 73, 3-[(5-chloro-2-pyrimidinyl)oxy]-2-(5,5,5-trifluoropentyl)benzonitrile]
[1]; [17]
  Ryegrass, Italian plant response rating: 80
[1]; Lolium multiflorum, post-emergence, 240 h, 500 g ai/ha, read-out: Ryegrass, Italian plant response rating (0 to 100 scale)
  pest or weed control at 500 g/ha: 100%
[2]; 125 g ai/ha
  pest or weed control at 125 g/ha: 90%
[2]; 500 g ai/ha
  pest or weed control at 500 g/ha: 100%
[3]; 125 g ai/ha
  pest or weed control at 125 g/ha: 50%
[3]; 500 g ai/ha
  pest or weed control at 500 g/ha: 100%
Corn (Zea mays); 125 g ai/ha
  plant injury at 125 g/ha: 30%
Corn (Zea mays); 500 g ai/ha
  plant injury at 500 g/ha: 60%
[4]; 125 g ai/ha
  pest or weed control at 125 g/ha: 100%
[4]; 500 g ai/ha
  pest or weed control at 500 g/ha: 100%
[5]; 125 g ai/ha
  pest or weed control at 125 g/ha: 100%
[5]; 500 g ai/ha
  pest or weed control at 500 g/ha: 100%
Kochia (Kochia scoparia); [17]
  Kochia plant response rating: 100
Kochia (Kochia scoparia); Bassia scoparia, post-emergence, 240 h, 500 g ai/ha, read-out: Kochia plant response rating (0 to 100 scale)
  pest or weed control at 500 g/ha: 100%
[6]; [17]
  Pigweed plant response rating: 100
[6]; Amaranthus retroflexus, post-emergence, 240 h, 500 g ai/ha, read-out: Pigweed plant response rating (0 to 100 scale)
  pest or weed control at 500 g/ha: 100%
[7]; [17]
  Ragweed plant response rating: 20
[7]; Ambrosia artemisiifolia, post-emergence, 240 h, 500 g ai/ha, read-out: Ragweed plant response rating (0 to 100 scale)
  pest or weed control at 500 g/ha: 30%
[8]; [17]
  Wheat plant response rating: 20
[8]; Triticum aestivum, post-emergence, 240 h, 500 g ai/ha, read-out: Wheat plant response rating (0 to 100 scale)
  plant injury at 500 g/ha: 90%
[9]; 16 g ai/ha, scale 0 to 100
  pest or weed control at 16 g/ha: 10%
[9]; 31 g ai/ha, scale 0 to 100
  pest or weed control at 31 g/ha: 5%
[9]; [18]
  pest or weed control at 62 g/ha: 40%
[9]; [19]
  pest or weed control at 125 g/ha: 35%
[10]; 16 g ai/ha, scale 0 to 100
  pest or weed control at 16 g/ha: 80%
[10]; 31 g ai/ha, scale 0 to 100
  pest or weed control at 31 g/ha: 80%
[10]; [18]
  pest or weed control at 62 g/ha: 90%
[10]; [19]
  pest or weed control at 125 g/ha: 85%
[11]; 16 g ai/ha, scale 0 to 100
  pest or weed control at 16 g/ha: 15%
[11]; 31 g ai/ha, scale 0 to 100
  pest or weed control at 31 g/ha: 25%
[11]; [18]
  pest or weed control at 62 g/ha: 20%
[11]; [19]
  pest or weed control at 125 g/ha: 25%
[12]; 16 g ai/ha, scale 0 to 100
  pest or weed control at 16 g/ha: 70%
[12]; 31 g ai/ha, scale 0 to 100
  pest or weed control at 31 g/ha: 70%
[12]; [18]
  pest or weed control at 62 g/ha: 75%
[12]; [19]
  pest or weed control at 125 g/ha: 98%
[13]; 16 g ai/ha, scale 0 to 100
  plant injury at 16 g/ha: 5%
[13]; 31 g ai/ha, scale 0 to 100
  plant injury at 31 g/ha: 80%
[13]; [18]
  plant injury at 62 g/ha: 98%
[13]; [19]
  plant injury at 125 g/ha: 50%
[14]; 16 g ai/ha, scale 0 to 100
  pest or weed control at 16 g/ha: 5%
[14]; 31 g ai/ha, scale 0 to 100
  pest or weed control at 31 g/ha: 5%
[14]; [18]
  pest or weed control at 62 g/ha: 10%
[14]; [19]
  pest or weed control at 125 g/ha: 20%
Soybean (Glycine max); 16 g ai/ha, scale 0 to 100
  plant injury at 16 g/ha: 45%
Soybean (Glycine max); 31 g ai/ha, scale 0 to 100
  plant injury at 31 g/ha: 70%
Soybean (Glycine max); [18]
  plant injury at 62 g/ha: 75%
Soybean (Glycine max); [19]
  plant injury at 125 g/ha: 60%
[15]; 16 g ai/ha
  Plant response rating, Waterhemp: 85
[15]; 31 g ai/ha
  Plant response rating, Waterhemp: 98
[15]; 62 g ai/ha
  Waterhemp plant response rating: 100
[15]; 125 g ai/ha
  Waterhemp plant response rating: 100
[16]; 16 g ai/ha, scale 0 to 100
  plant injury at 16 g/ha: 0%
[16]; 31 g ai/ha, scale 0 to 100
  plant injury at 31 g/ha: 5%
[16]; 62 g ai/ha, scale 0 to 100 (0 no effect, 100 complete control), read-out: Wheat plant response rating
  plant injury at 62 g/ha: 5%
[16]; [19]
  plant injury at 125 g/ha: 5%
